Source: patent publication US20240174696A1, “2,8-DIAZASPIRO[4.5]DECANE COMPOUNDS” (Genentech, Inc., priority 2021, published 2024)
pEC50, pKi: −log10 of the molar value.

Experiments:
[1] = test system: TAZ nuclear translocation in SW1990 cells; assay: TAZ Nuclear Translocation Assay; type: cell-based; conditions: Homo sapiens, 4 hours
Summary of the method: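 SW1990 cells in RPMI1640/10% FBS treated with compounds for 4 h at 37 °C, then fixed and immunostained for TAZ with Hoechst nuclear counterstain and imaged by high-content imaging. Read-out is the nuclear/cytoplasmic-ring fluorescence ratio, normalized to DMSO (0%) and an inhibitor control (100%); EC50 from four-parameter fit.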

[2] = molecular target: Human LATS2 catalytic domain (Homo sapiens (Human), UniProt Q9NRM7); assay: LATS2 High ATP HTRF Assay; type: biochemical; conditions: no asterisk: LATS2 High ATP HTRF Assay, 5000 μM ATP, 0.05 nM LATS2
Chain of Human LATS2 catalytic domain (Q9NRM7 553-1088): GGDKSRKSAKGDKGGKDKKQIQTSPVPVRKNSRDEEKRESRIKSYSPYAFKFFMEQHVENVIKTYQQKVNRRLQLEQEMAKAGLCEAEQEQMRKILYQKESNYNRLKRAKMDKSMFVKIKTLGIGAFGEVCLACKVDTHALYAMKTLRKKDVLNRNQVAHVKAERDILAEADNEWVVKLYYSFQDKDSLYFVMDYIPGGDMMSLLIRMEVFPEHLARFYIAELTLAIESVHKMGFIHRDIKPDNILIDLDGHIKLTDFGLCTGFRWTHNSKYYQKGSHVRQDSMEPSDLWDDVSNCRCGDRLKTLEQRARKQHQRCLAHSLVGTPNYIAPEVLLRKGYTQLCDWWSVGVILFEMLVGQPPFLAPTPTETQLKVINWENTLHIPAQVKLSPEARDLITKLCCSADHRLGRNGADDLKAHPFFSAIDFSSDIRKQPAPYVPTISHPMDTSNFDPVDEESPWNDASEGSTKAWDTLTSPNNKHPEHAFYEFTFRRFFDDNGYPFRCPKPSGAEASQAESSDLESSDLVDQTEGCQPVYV
Chain of Human LATS2 catalytic domain (Q7L9L4 whole entry partner, the tested form may be a part): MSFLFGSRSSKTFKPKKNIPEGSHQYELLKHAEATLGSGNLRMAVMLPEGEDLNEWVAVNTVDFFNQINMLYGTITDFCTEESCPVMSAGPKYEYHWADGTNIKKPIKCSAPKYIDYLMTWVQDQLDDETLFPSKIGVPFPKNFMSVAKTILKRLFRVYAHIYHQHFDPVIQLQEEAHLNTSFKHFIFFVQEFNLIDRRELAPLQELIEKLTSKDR
Summary of the method: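 Phosphorylation of 0.5 μM STK S1 peptide at high ATP (5000 μM), 2 h at room temperature, by 0.05 nM LATS2 kinase domain/Mob1b complex after 10 min compound pre-incubation. Ki derived from HTRF-based IC50 (4-parameter logistic) by Cheng-Prusoff, ATP Km 105 μM.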

Structure (SMILES)	pEC50 [1]	pKi [2]
c1cc(-c2nc(N3CCC4(CCNC4)CC3)c3c(OC4COC4)cncc3n2)ccn1 [Compound 260, 5-(Oxetan-3-yloxy)-2-(pyridin-4-yl)-4-(2,8-diazaspiro[4.5]decan-8-yl)pyrido[3,4-d]pyrimidine]	5.40	10.26
C#CCN1CCC2(CCN(c3nc(-c4ccncc4)nc4cnccc34)CC2)C1 [Compound 261, 4-(2-(prop-2-yn-1-yl)-2,8-diazaspiro[4.5]decan-8-yl)-2-(pyridin-4-yl)pyrido[3,4-d]pyrimidine]	6.24	10.00
COCCOc1cncc2nc(-c3ccncc3)nc(N3CCC4(CCNC4)CC3)c12 [Compound 263, 5-(2-methoxyethoxy)-2-(pyridin-4-yl)-4-(2,8-diazaspiro[4.5]decan-8-yl)pyrido[3,4-d]pyrimidine]	5.92	9.96
CN1CCC2(CCN(c3nc(-c4ccncc4)nc4c(Cl)nccc34)CC2)C1 [Compound 266, 8-chloro-4-(2-methyl-2,8-diazaspiro[4.5]decan-8-yl)-2-(pyridin-4-yl)pyrido[3,4-d]pyrimidine]	5.96	9.43
FCOc1cncc2nc(-c3ccncc3)nc(N3CCC4(CCNC4)CC3)c12 [Compound 267, 5-(fluoromethoxy)-2-(pyridin-4-yl)-4-(2,8-diazaspiro[4.5]decan-8-yl)pyrido[3,4-d]pyrimidine]	6.44	10.55
CN1CCC2(CCN(c3nc(-c4ccncc4)nc4cncc(OCC5COC5)c34)CC2)C1 [Compound 270, 4-(2-Methyl-2,8-diazaspiro[4.5]decan-8-yl)-5-(oxetan-3-ylmethoxy)-2-(pyridin-4-yl)pyrido[3,4-d]pyrimidine]	6.07	9.82
Clc1nccc2c(N3CCC4(CCNC4)CC3)nc(-c3ccncc3)nc12 [Compound 272, 8-chloro-2-(pyridin-4-yl)-4-(2,8-diazaspiro[4.5]decan-8-yl)pyrido[3,4-d]pyrimidine trifluoro acetate]	5.96	9.51
COCC1CC2(CCN(c3nc(-c4ccncc4)nc4cncc(OC)c34)CC2)CN1 (stereo not shown) [Compound 276, 5-methoxy-4-(3-(methoxymethyl)-2,8-diazaspiro[4.5]decan-8-yl)-2-(pyridin-4-yl)pyrido[3,4-d]pyrimidine]	6.39	9.72
COc1cncc2nc(-c3ccncc3)nc(N3CCC4(CCNC4=O)CC3)c12 [Compound 279, 8-(5-methoxy-2-(pyridin-4-yl)pyrido[3,4-d]pyrimidin-4-yl)-2,8-diazaspiro[4.5]decan-1-one]	5.28	8.35
COc1cncc2nc(-c3ccncc3)nc(N3CCC4(CCN(CC(F)F)C4)CC3)c12 [Compound 280, 4-(2-(2,2-difluoroethyl)-2,8-diazaspiro[4.5]decan-8-yl)-5-methoxy-2-(pyridin-4-yl)pyrido[3,4-d]pyrimidine]	6.24	10.41
c1cc(-c2cc3cnccc3c(N3CCC4(CCNC4)CC3)n2)ccn1 [Example 199, 3-(Pyridin-4-yl)-1-(2,8-diazaspiro[4.5]decan-8-yl)-2,6-naphthyridine]	5.21	8.48
CCc1cncc2nc(-c3ccncc3)nc(N3CCC4(CCNC4)CC3)c12 [Example 204, 5-Ethyl-2-(pyridin-4-yl)-4-(2,8-diazaspiro[4.5]decan-8-yl)pyrido[3,4-d]pyrimidine]	6.00	8.96
OC1(CN2CCC3(CCN(c4nc(-c5ccncc5)nc5cnccc45)CC3)C2)COC1 [Example 211, 3-((8-(2-(Pyridin-4-yl)pyrido[3,4-d]pyrimidin-4-yl)-2,8-diazaspiro[4.5]decan-2-yl)methyl)oxetan-3-ol]	6.38	9.96
FC(F)c1[nH]ncc1-c1nc(N2CCC3(CCNC3)CC2)c2ccncc2n1 [Example 213, 2-(5-(difluoromethyl)-1H-pyrazol-4-yl)-4-(2,8-diazaspiro[4.5]decan-8-yl)pyrido[3,4-d]pyrimidine]	< 5.00	9.22
CNc1cc2c(N3CCC4(CCN(C)C4)CC3)nc(-c3ccncc3)nc2cn1 [Example 214, N-methyl-4-(2-methyl-2,8-diazaspiro[4.5]decan-8-yl)-2-(pyridin-4-yl)pyrido[3,4-d]pyrimidin-6-amine]	6.07	8.00
CN(C)S(=O)(=O)CCN1CCC2(CCN(c3nc(-c4ccncc4)nc4cnccc34)CC2)C1 [Example 215, N,N-dimethyl-2-(8-(2-(pyridin-4-yl)pyrido[3,4-d]pyrimidin-4-yl)-2,8-diazaspiro[4.5]decan-2-yl)ethanesulfonamide]	5.82	8.92
Cc1n[nH]cc1-c1nc(N2CCC3(CCN(CCF)C3)CC2)c2ccncc2n1 [Example 219, 4-(2-(2-fluoroethyl)-2,8-diazaspiro[4.5]decan-8-yl)-2-(3-methyl-1H-pyrazol-4-yl)pyrido[3,4-d]pyrimidine]	6.34	10.17
Cc1[nH]ncc1-c1nc(N2CCC3(CCN(CC(F)F)C3)CC2)c2ccncc2n1 [Example 220, 4-(2-(2,2-difluoroethyl)-2,8-diazaspiro[4.5]decan-8-yl)-2-(3-methyl-1H-pyrazol-4-yl)pyrido[3,4-d]pyrimidine]	6.18	10.13
FC1(F)CNCC12CCN(c1nc(-c3ccncc3)nc3cnccc13)CC2 [Example 223, 4-(4,4-difluoro-2,8-diazaspiro[4.5]decan-8-yl)-2-(pyridin-4-yl)pyrido[3,4-d]pyrimidine]	< 5.00	8.57
CS(=O)(=O)NCC1CC2(CCN(c3nc(-c4ccncc4)nc4cnccc34)CC2)CN1 (stereo not shown) [Example 224, N-((8-(2-(pyridin-4-yl)pyrido[3,4-d]pyrimidin-4-yl)-2,8-diazaspiro[4.5]decan-3-yl)methyl)methanesulfonamide]	5.05	9.80

Now those with a higher pEC50 [1], led by results:

pEC50 [1]	pKi [2]	Structure (SMILES)
6.48	10.39	C#CC(C)(O)CN1CCC2(CCN(c3nc(-c4ccncc4)nc4cnccc34)CC2)C1 (stereo not shown) [Compound 271, 2-methyl-1-(8-(2-(pyridin-4-yl)pyrido[3,4-d]pyrimidin-4-yl)-2,8-diazaspiro[4.5]decan-2-yl)but-3-yn-2-ol]
6.51	10.70	COc1cnc(Cl)c2nc(-c3ccncc3)nc(N3CCC4(CCN(C)C4)CC3)c12 [Compound 275, 8-chloro-5-methoxy-4-(2-methyl-2,8-diazaspiro[4.5]decan-8-yl)-2-(pyridin-4-yl)pyrido[3,4-d]pyrimidine]
6.54	9.96	CN1CCC2(CCN(c3nc(-c4ccncc4)nc4cncc(OC5CC(C#N)C5)c34)CC2)C1 (stereo not shown) [Compound 277, 3-((4-(2-Methyl-2,8-diazaspiro[4.5]decan-8-yl)-2-(pyridin-4-yl)pyrido[3,4-d]pyrimidin-5-yl)oxy)cyclobutane-1-carbonitrile]
6.59	10.37	COc1cncc2nc(-c3c[nH]nc3C)nc(N3CCC4(CCN(CC5COC5)C4)CC3)c12 [Compound 273, 5-methoxy-2-(3-methyl-1H-pyrazol-4-yl)-4-(2-(oxetan-3-ylmethyl)-2,8-diazaspiro[4.5]decan-8-yl)pyrido[3,4-d]pyrimidine]
6.60	10.55	Cc1[nH]ncc1-c1nc(N2CCC3(CCN(C)C3)CC2)c2ccnc(Cl)c2n1 [Compound 262, 8-chloro-2-(5-methyl-1H-pyrazol-4-yl)-4-(2-methyl-2,8-diazaspiro[4.5]decan-8-yl)pyrido[3,4-d]pyrimidine]
6.62	10.33	COc1cncc2nc(-c3c[nH]nc3C)nc(N3CCC4(CCN(CC(C)(C)O)C4)CC3)c12 [Compound 265, 1-(8-(5-methoxy-2-(3-methyl-1H-pyrazol-4-yl)pyrido[3,4-d]pyrimidin-4-yl)-2,8-diazaspiro[4.5]decan-2-yl)-2-methylpropan-2-ol]
6.68	10.47	CN1CCC2(CCN(c3nc(-c4ccncc4)nc4cncc(OC5COC5)c34)CC2)C1 [Compound 269, 4-(2-Methyl-2,8-diazaspiro[4.5]decan-8-yl)-5-(oxetan-3-yloxy)-2-(pyridin-4-yl)pyrido[3,4-d]pyrimidine]
6.74	10.70	FC(F)Oc1cncc2nc(-c3ccncc3)nc(N3CCC4(CCNC4)CC3)c12 [Compound 274, 5-(difluoromethoxy)-2-(pyridin-4-yl)-4-(2,8-diazaspiro[4.5]decan-8-yl)pyrido[3,4-d]pyrimidine]
6.77	10.59	COc1cncc2nc(-c3c[nH]nc3C)nc(N3CCC4(CCN(C)C4)CC3)c12 [Compound 264, 5-methoxy-2-(3-methyl-1H-pyrazol-4-yl)-4-(2-methyl-2,8-diazaspiro[4.5]decan-8-yl)pyrido[3,4-d]pyrimidine]
6.77	9.64	OC1(CN2CCC3(CCN(c4nc(-c5ccncc5)nc5cnccc45)CC3)C2)CCC1 [Example 205, 1-((8-(2-(Pyridin-4-yl)pyrido[3,4-d]pyrimidin-4-yl)-2,8-diazaspiro[4.5]decan-2-yl)methyl)cyclobutan-1-ol]
6.77	10.00	OCC1CC2(CCN(c3nc(-c4ccncc4)nc4cnccc34)CC2)CN1C1CCCC1 (stereo not shown) [Example 206, (2-cyclopentyl-8-(2-(pyridin-4-yl)pyrido[3,4-d]pyrimidin-4-yl)-2,8-diazaspiro[4.5]decan-3-yl)methanol]
6.89	10.47	CC(C)(O)CN1CCC2(CCN(c3nc(-c4ccncc4)nc4cncc(OC5COC5)c34)CC2)C1 [Compound 268, 2-Methyl-1-(8-(5-(oxetan-3-yloxy)-2-(pyridin-4-yl)pyrido[3,4-d]pyrimidin-4-yl)-2,8-diazaspiro[4.5]decan-2-yl)propan-2-o0]
